From ChEMBL document CHEMBL5120909, “Reshaping an Acyclic Nucleoside Phosphonate into a Selective Anti-hepatitis B Virus Compound” (J Med Chem, 2022)

Columns and labels:
[1] = test system: HepG2 2.2.15; assay: Cytotoxicity against human HepG2.2.15 cells assessed as reduction in cell viability; format: functional
[2] = test system: Hepatitis B virus; assay: Antiviral activity against wild type HBV infected in human HepG2 2.2.15 cells assessed as reduction in viral replication by DNA HYB (Vision)/neutral red (Tox) assay; format: functional, organism-based; conditions: HepG2.2.15
[3] = test system: Hepatitis B virus; assay: Antiviral activity against wild type HBV infected in human HepG2 2.2.15 cells assessed as reduction in viral replication pre incubated for 3 days followed by replacement with fresh compounds for another 3 days prior to pronase treatment by RT-qPCR analysis; format: functional, organism-based, HepG2.2.15; conditions: for EC50: HepG2.2.15; for EC90: HepG2.2.15, 144 h, time 6 day
[4] = Selectivity index, ratio of CC50 cytotoxicity against human HepG2.2.15 cells assessed as reduction in cell viability to EC50 for antiviral activity against wild type HBV infected in human HepG2 2.2.15 cells assessed as reduction in viral replication by DNA HYB (Vision)/neutral red (Tox) assay; format: toxicity, cell-based; conditions: read-out: Selectivity Index
[5] = Cytotoxicity against human MT4 cells assessed as reduction in cell viability by MTT assay; format: toxicity, cell-based
[6] = Selectivity index, ratio of CC50 cytotoxicity against human HepG2.2.15 cells assessed as reduction in cell viability to EC50 for antiviral activity against wild type HBV infected in human HepG2 2.2.15 cells assessed as reduction in viral replication by DNA HYB (RI)/neutral red (Tox) assay; format: toxicity, cell-based; conditions: read-out: Selectivity Index
[7] = test system: Hepatitis B virus; assay: Antiviral activity against wild type HBV infected in human HepG2 2.2.15 cells assessed as reduction in viral replication by DNA HYB (RI)/neutral red (Tox) assay; format: functional, organism-based; conditions: HepG2.2.15
[8] = (§1) Selectivity index, ratio of CC50 for cytotoxicity against human MT4 cells assessed as reduction in cell viability by MTT assay to EC50 for anti-HIV activity against wild type HIV-1 IIIB infected in human MT4 cells assessed as inhibition of HIV-induced cytopathic effect measured after 5 days by MTT assay; format: toxicity, cell-based; conditions: read-out: Ratio CC50/EC50
[9] = test system: Human immunodeficiency virus 2; assay: Anti-HIV activity against wild type HIV-2 ROD infected in human MT4 cells assessed as inhibition of HIV-induced cytopathic effect measured after 5 days by MTT assay; format: functional, organism-based; conditions: Human immunodeficiency virus 2, ROD, MT4, 120 h
[10] = test system: HepG2 2.2.15; assay: Cytotoxicity against human HepG2.2.15 cells assessed as reduction in cell viability incubated for 1 to 4 hrs by MTS uptake assay; format: functional; conditions: time 1-4 hrs
[11] = test system: Human immunodeficiency virus 1; assay: Anti-HIV activity against wild type HIV-1 IIIB infected in human MT4 cells assessed as inhibition of HIV-induced cytopathic effect measured after 5 days by MTT assay; format: functional, organism-based; conditions: Human immunodeficiency virus 1, IIIB, MT4, 120 h
[12] = as §1, with “HIV-2 ROD” for “HIV-1 IIIB”; format: toxicity, cell-based; conditions: read-out: Ratio CC50/EC50
[13] = test system: HepG2 2.2.15; assay: Cytotoxicity against human HepG2.2.15 cells assessed as reduction in cell viability by neutral red uptake assay; format: functional
[14] = Cytotoxicity against human HEL cells assessed as change in cell morphology measured after 3 days […]; format: toxicity, cell-based; conditions: time 3 day
[15] = test system: Human alphaherpesvirus 3; assay: Antiviral activity against VZV TK- infected in HEL cells assessed as reduction in virus plaque formation; format: functional, organism-based; conditions: Human alphaherpesvirus 3, TK-
[16] = test system: Human betaherpesvirus 5; assay: Antiviral activity against HCMV Davis infected in HEL cells assessed as reduction in virus plaque formation; format: functional, organism-based; conditions: Human betaherpesvirus 5, Davis
[17] = test system: Human betaherpesvirus 5; assay: Antiviral activity against HCMV AD-169 infected in HEL cells assessed as reduction in virus plaque formation; format: functional, organism-based; conditions: Human betaherpesvirus 5, AD-169, HEL
[18] = test system: Human alphaherpesvirus 3; assay: Antiviral activity against VZV TK+ infected in HEL cells assessed as reduction in virus plaque formation; format: functional, organism-based; conditions: Human alphaherpesvirus 3, TK+
[19] = Cytotoxicity against human HFF cells infected with VZV Ellen virus assessed as reduction in cell viability by cell titer-glo assay; format: toxicity, cell-based
[20] = Cytotoxicity against human HFF cells infected with HCMV AD-169 virus assessed as reduction in cell viability by cell titer-glo assay; format: toxicity, cell-based
[21] = test system: Human alphaherpesvirus 3; assay: Antiviral activity against VZV Ellen infected in HFF cells assessed as reduction in viral replication measured after 14 days; format: functional, organism-based; conditions: Human alphaherpesvirus 3, Ellen, 336 h; for EC90: time 14 day
[22] = (§2) Selectivity index, ratio of CC50 for cytotoxicity against human HFF cells infected with VZV Ellen virus assessed as reduction in cell viability by cell titer-glo assay to EC50 for antiviral activity against VZV Ellen infected in HFF cells assessed as inhibition of virus-induced cytopathic effect measured after 14 days; format: toxicity, cell-based; conditions: read-out: Ratio CC50/EC50
[23] = as §2, with “HCMV AD-169” for “VZV Ellen”; format: toxicity, cell-based; conditions: read-out: Ratio CC50/EC50
[24] = test system: Human betaherpesvirus 5; assay: Antiviral activity against HCMV AD-169 infected in HFF cells assessed as reduction in viral replication measured after 14 days; format: functional, organism-based; conditions: Human betaherpesvirus 5, AD-169, HFF, 336 h; for EC90: time 14 day
[25] = Cytotoxicity against human HEL cells assessed as reduction in cell growth measured after 3 days by coulter counting method; format: toxicity, cell-based; conditions: time 3 day

| Structure (SMILES) | CC50 [1] [µM] | EC50 [3] [µM] | EC90 [3] [µM] | CC50 [5] [µM] | selectivity ratio at 120 h [8] | EC50 [9] [µM] | CC50 [10] [µM] | EC50 [11] [µM] | selectivity ratio at 120 h [12] | CC50 [13] [µM] | MCC at 72 h [14] [µM] | EC50 [15] [µM] | EC50 [16] [µM] | EC50 [17] [µM] | EC50 [18] [µM] | other results |
| --- | --- | --- | --- | --- | --- | --- | --- | --- | --- | --- | --- | --- | --- | --- | --- | --- |
| Nc1ccn([C@@H]2CS[C@H](CO)O2)c(=O)n1 [LAMIVUDINE] | 2120 | 0.04 | 0.13 | > 87.2 | > 24 | 9.9 | > 2 | 2.53 | > 9 | 2120 | – | – | – | – | – | EC50 [2]: 0.04 µM; EC90 [2]: 0.12 µM; selectivity ratio [4]: 57400; selectivity ratio [6]: 16200; EC50 [7]: 0.13 µM; EC90 [7]: 0.35 µM |
| C#C[C@@](CO)(Cn1cnc2c(=O)[nH]c(N)nc21)OCP(=O)(N[C@@H](Cc1ccccc1)C(=O)OCCC)N[C@@H](Cc1ccccc1)C(=O)OCCC | > 100 | 0.00927 | – | – | – | – | – | – | – | – | – | – | – | – | – | – |
| Cc1cn(CC(C)(CO)OCP(=O)(O)O)c(=O)[nH]c1=O (racemic) | – | > 100 | > 100 | > 406 | 1 | > 406 | > 100 | > 406 | 1 | – | > 324 | 253 | > 324 | > 324 | > 324 | – |
| C#CC(CO)(Cn1ccc(N)nc1=O)OCP(=O)(O)O (racemic) | – | > 100 | > 100 | > 412 | 1 | > 412 | – | > 412 | 1 | > 100 | – | – | – | – | – | CC50 [19]: > 150 µM; CC50 [20]: 132 µM; EC50 [21]: 15.4 µM; EC90 [21]: > 150 µM; selectivity ratio at 336 h [22]: > 10; selectivity ratio at 336 h [23]: < 4; EC50 [24]: 30 µM; EC90 [24]: > 30 µM |
| O=c1[nH]c(=O)n([C@H]2C[C@H](O)[C@@H](CO)O2)cc1/C=C/Br [BRIVUDINE] | – | – | – | – | – | – | – | – | – | – | > 300 | 36.1 | 0.34 | 0.29 | 0.07 | CC50 at 72 h [25]: > 300 µM |
| C[C@](CO)(Cn1cnc2c(=O)[nH]c(N)nc21)OCP(=O)(O)O | > 100 | 0.335 | – | – | – | – | – | – | – | – | – | – | – | – | – | – |
| CC(CO)(Cn1ccc(N)nc1=O)OCP(=O)(O)O (racemic) | – | > 100 | > 100 | > 426 | 1 | > 426 | > 100 | > 426 | 1 | – | > 341 | 45.6 | 37.3 | 24.9 | 18.8 | CC50 at 72 h [25]: > 341 µM |
| C#CC(CO)(Cn1cc(C)c(=O)[nH]c1=O)OCP(=O)(O)O (racemic) | – | > 100 | > 100 | > 393 | 1 | > 393 | – | > 393 | 1 | > 100 | – | – | – | – | – | CC50 [19]: 139 µM; CC50 [20]: 140 µM; EC50 [21]: 27.1 µM; EC90 [21]: > 30 µM; selectivity ratio at 336 h [22]: 5; selectivity ratio at 336 h [23]: < 5; EC50 [24]: 30 µM; EC90 [24]: > 30 µM |
| CC(CO)(Cn1ccc(=O)[nH]c1=O)OCP(=O)(O)O (racemic) | – | > 100 | > 100 | > 425 | 1 | > 425 | > 100 | > 425 | 1 | – | > 340 | 340 | 186 | 260 | 270 | – |
